Converted amounts (≈) assume the structure as drawn. Read-outs that look alike come from different tables or passages of the source.
How the values were obtained:
[1] = system: CRFK cells; assay: Cytotoxicity assay of the compounds (CCK-8); format: cell-based, feline
Description: (§1) CRFK cells were seeded in 96-well cell culture plates at a density of 1 × 10^4 cells/well and incubated at 37 °C with 5% CO2 until the cell density reached more than 90%. Then, the medium was discarded, and the cells were washed twice with PBS. The compound to be tested was diluted in 10 successive gradients with MM at a 2-fold multiplicity (at the same time, there was a cell control group of 100 μL of MM, and 3 replicate wells were set for each concentration and group) and incubated at 37 °C with 5% CO2 for 72 h; then, the liquid in the plate was discarded and washed twice with PBS. Afterwards, the cytopathic ratios (CRs) of the compounds to cells were calculated according to the instructions of the Cell Counting Kit-8 (MCE, NJ, USA), and the CC50s of the compounds and the MNTCs at which the compounds could survive more than 90% of the cells were calculated using GraphPad Prism 10. In subsequent experiments, the final concentrations of the compounds after addition were the MNTCs of the compounds unless otherwise specified.

[2] = Cytotoxicity assay of the compounds (CCK-8); format: cell-based, feline; settings: cat
Description: as §1

[3] = system: FIPV (BJ-01); assay: Inhibitory effects of compounds on FIPV-infected cells (compound and FIPV added simultaneously, CCK-8); format: cell-based, feline infectious peritonitis virus; settings: 72 h; for inhibition of FIPV infection (MIR): compound at MNTC added with 100 TCID50 FIPV to CRFK cells
Description: According to previous methods, CRFK cells were seeded in 96-well cell culture plates at a density of 1 × 10^4 cells/well and cultured at 37 °C in 5% CO2 until the cell density was greater than 90%. After the cells were washed twice with PBS, 50 μL of test compound and 50 μL of FIPV were added to each well simultaneously (at the same time, a cell control group with only 100 μL of MM and a viral control group with only 100 μL of FIPV were added). There were 3 replicate wells for each compound and group. After 72 h of incubation at 37 °C and 5% CO2, the liquid in the plate was discarded, and the cells were washed twice with PBS. The MIR of the compounds to the virus was calculated according to the instructions of the Cell Counting Kit-8. Afterwards, the compounds with MIR > 50% were diluted to 8 concentrations with MM, and the above process was repeated. Then, the EC50 values of the compounds were calculated with GraphPad Prism 10.

[4] = CRFK cells, 72 h, CCK-8, concentration at which more than 90% of the cells survive
[5] = CRFK cells, 72 h, CCK-8, read-out: CC50

O=C1CCC[C@@H]2[C@H]3CCCN4CCC[C@@H](CN12)[C@@H]34 [Matrine]
MNTC (maximum noncytotoxic concentration) [1, 4]: 699.8 µg/mL | CC50 at 72 h [2, 5]: 1110 µg/mL (≈ 4470 µM) | inhibition of FIPV infection (MIR) [3]: less than 20%

O=C(/C=C/c1ccc(O)c(O)c1)O[C@@H]1C[C@](O)(C(=O)O)C[C@@H](O)[C@H]1O [Chlorogenic acid]
MNTC (maximum noncytotoxic concentration) ([1]; cat, 72 h): 1605 µg/mL | CC50 at 72 h [2]: 2170 µg/mL (≈ 6120 µM)

N#C[C@@]1(c2ccc3c(N)ncnn23)O[C@H](CO)[C@@H](O)[C@H]1O [GS-441524, reference compound]
MNTC (maximum noncytotoxic concentration) [1, 4]: 36.20 µg/mL | CC50 at 72 h [2, 5]: 70.3 µg/mL (≈ 241 µM) | EC50 ([3]; Alphacoronavirus 1, FIPV in CRFK cells, gradient dilution, CCK-8): 0.205 µg/mL (≈ 0.704 µM) | inhibition of FIPV infection (MIR) [3]: significantly more than the other compounds tested

C[S+](C)[O-] [DMSO]
MNTC [1]: 0.83%

Cc1coc2c1C(=O)C(=O)c1c-2ccc2c1CCCC2(C)C [Tanshinone IIA]
MNTC (maximum noncytotoxic concentration) [1, 4]: 290.9 µg/mL | CC50 at 72 h [2, 5]: 807 µg/mL (≈ 2740 µM) | inhibition of FIPV infection (MIR) [3]: less than 20%

Cc1cccc2c3c(ccc12)C1=C(C(=O)C3=O)[C@@H](C)CO1 [Dihydrotanshinone I]
MNTC (maximum noncytotoxic concentration) ([1]; cat, 72 h): 246.4 µg/mL | CC50 at 72 h [2]: 426 µg/mL (≈ 1530 µM) | inhibition of FIPV infection (MIR) [3]: less than 20%

O=c1c(-c2ccc(O)cc2)coc2c([C@@H]3O[C@H](CO)[C@@H](O)[C@H](O)[C@H]3O)c(O)ccc12 [Puerarin]
MNTC (maximum noncytotoxic concentration) ([1]; cat, 72 h): 83.77 µg/mL | CC50 at 72 h [2]: 209 µg/mL (≈ 501 µM) | inhibition of FIPV infection (MIR) [3]: less than 20%

Cc1nc(C)c(C)nc1C.Cl [Ligustrazine hydrochloride]
CC50 ([1]; CRFK cells, 72 h, CCK-8): 2709 µg/mL | MNTC (maximum noncytotoxic concentration) [1, 4]: 969.6 µg/mL | inhibition of FIPV infection (MIR) [3]: less than 20%

O=C(O)/C=C/c1ccc(O)c(O)c1 [Caffeic acid]
MNTC (maximum noncytotoxic concentration) ([1]; cat, 72 h): 53.43 µg/mL | CC50 at 72 h [2]: 58.8 µg/mL (≈ 326 µM)

CC1(C)[C@@H](O[C@H]2O[C@H](C(=O)O)[C@@H](O)[C@H](O)[C@H]2O[C@@H]2O[C@H](C(=O)O)[C@@H](O)[C@H](O)[C@H]2O)CC[C@]2(C)[C@H]3C(=O)C=C4[C@@H]5C[C@@](C)(C(=O)O)CC[C@]5(C)CC[C@@]4(C)[C@]3(C)CC[C@@H]12 [Glycyrrhizic acid]
MNTC (maximum noncytotoxic concentration) [1, 4]: 1412 µg/mL | CC50 at 72 h [2, 5]: 3320 µg/mL (≈ 4040 µM)

From PMC11431997, “Baicalin Inhibits FIPV Infection In Vitro by Modulating the PI3K-AKT Pathway and Apoptosis Pathway” (International Journal of Molecular Sciences, 2024)
